Values quoted from earlier work, collected in US7575768B2, “Dietary supplements and prepared foods containing triglyceride-recrystallized non-esterified phytosterols” (Brandeis University, priority 2005, dated 2009).

Test system: humans

Compound | lowering of serum cholesterol (12-18 g per day in divided doses, males with atherosclerosis) | decrease of plasma cholesterol level (9-18 grams per day, coarse powdered form)
CC[C@H](CC[C@@H](C)[C@H]1CC[C@H]2[C@@H]3CC=C4C[C@@H](O)CC[C@]4(C)[C@H]3CC[C@]12C)C(C)C [beta sitosterol] | 15-20% | 
CC[C@H](CC[C@@H](C)[C@H]1CC[C@H]2[C@@H]3CC=C4C[C@@H](O)CC[C@]4(C)[C@H]3CC[C@]12C)C(C)C [sitosterol] |  | approximately 15%
